This is an account of results in ChEMBL document CHEMBL1159255, “Cardenolides from Nierembergia aristata” (1995).

Assay [1] concerns HT. In words: Cytotoxicity against human HT cells. Conditions: read-out: ED50 (the source's name). Format: functional.
Assay [2] in a line: Cytotoxicity against human KBVIN cells in presence of vinblastine. The class given is functional. The note with it: read-out: ED50 (the source's name).
Assay [3] is described as follows: Cytotoxicity against human BC1 cells. Format: functional. The note with it: read-out: ED50 (the source's name).
Assay [4] relates to A-431. In words: Cytotoxicity against human A431 cells. Format: functional. The note with it: read-out: ED50 (the source's name).
Assay [5] has as its system ZR-75-1. In words: Cytotoxicity against human ZR-75-1 cells. Format: functional. The note with it: read-out: ED50 (the source's name).
Assay [6] relates to Col2. In words: Cytotoxicity against human Col2 cells. The note with it: read-out: ED50 (the source's name). Format: functional.
The test system of assay [7] is Lu1. In words: Cytotoxicity against human Lu1 cells. The class given is functional. The note with it: read-out: ED50 (the source's name).
Assay [8] can be described thus: Cytotoxicity against human U373 cells. The class given is functional, U-373MG ATCC. Conditions: U373 MG, read-out: ED50 (the source's name).
Assay [9] is described as follows: Cytotoxicity against human KBVIN cells in absence of vinblastine. Format: functional. Conditions: read-out: ED50 (the source's name).
Assay [10] relates to KB. In words: Cytotoxicity against human KB cells. Format: functional. Conditions: read-out: ED50 (the source's name).
The subject of assay [11] is SK-MEL-2. In words: Cytotoxicity against human SK-MEL-2 cells. Conditions: read-out: ED50 (the source's name). Format: functional.
Assay [12] relates to LNCaP. In words: Cytotoxicity against human LNCAP cells. Format: functional. Conditions: read-out: ED50 (the source's name).

SMILES strings stand for the structures. Converted amounts (≈) assume the structure as drawn.

Turning to `C[C@H]1O[C@@H](O[C@H]2CC[C@]3(C=O)[C@H]4CC[C@]5(C)[C@@H](C6=CC(=O)OC6)CC[C@]5(O)[C@@H]4C=C[C@]3(O)C2)C[C@H](O)[C@H]1O`, the EC50 in assay [1] stood at 0.05 µg/mL (≈ 0.0939 µM); in assay [2], 0.05 µg/mL; in [3], 0.04 µg/mL (≈ 0.0751 µM); in assay [4], 0.09 µg/mL (≈ 0.169 µM); in assay [5], 0.08 µg/mL (≈ 0.15 µM); in assay [6], 0.07 µg/mL (≈ 0.131 µM). In addition, the EC50 turned out to be 0.03 µg/mL (≈ 0.0563 µM) in assay [7]; 0.09 µg/mL (≈ 0.169 µM) in assay [8]; 0.06 µg/mL (≈ 0.113 µM) in [9]; 0.04 µg/mL (≈ 0.0751 µM) in assay [10]; 0.05 µg/mL (≈ 0.0939 µM) in assay [11]; 0.1 µg/mL (≈ 0.188 µM) in assay [12].

As to `C[C@H]1O[C@@H](O[C@H]2CC[C@]3(C=O)[C@H]4[C@H](O)C[C@]5(C)[C@H](C6=CC(=O)OC6)CC[C@]5(O)[C@@H]4C=C[C@]3(O)C2)C[C@H](O)[C@H]1O`, the EC50 in assay [1] was 2.3 µg/mL (≈ 4.19 µM); in assay [2], 0.6 µg/mL; in [3], 0.3 µg/mL (≈ 0.547 µM); in assay [4], 0.5 µg/mL (≈ 0.911 µM); in assay [5], 0.4 µg/mL (≈ 0.729 µM); in assay [6], 0.5 µg/mL (≈ 0.911 µM). The EC50 is 0.09 µg/mL (≈ 0.164 µM) in [7]; 0.4 µg/mL (≈ 0.729 µM) in assay [8]; 1.6 µg/mL (≈ 2.92 µM) in [9]; 0.3 µg/mL (≈ 0.547 µM) in assay [10]; 4.1 µg/mL (≈ 7.47 µM) in assay [11]; 0.3 µg/mL (≈ 0.547 µM) in assay [12].

For `CO[C@@H]1C[C@H](O[C@H]2CC[C@]3(C=O)[C@H]4CC[C@]5(C)[C@@H](C6=CC(=O)OC6)CC[C@]5(O)[C@@H]4C=C[C@]3(O)C2)O[C@H](C)[C@H]1O`, the EC50 in [1] amounted to 0.4 µg/mL (≈ 0.732 µM); in assay [2], 0.3 µg/mL; in assay [3], 0.3 µg/mL (≈ 0.549 µM); in [4] it was 0.7 µg/mL (≈ 1.28 µM); in assay [5] it was 0.2 µg/mL (≈ 0.366 µM); in assay [6] it was 0.9 µg/mL (≈ 1.65 µM). The EC50 in assay [7] worked out at 0.1 µg/mL (≈ 0.183 µM); in assay [8], 0.8 µg/mL (≈ 1.46 µM); in [9] it was 0.5 µg/mL (≈ 0.915 µM); in [10], 0.3 µg/mL (≈ 0.549 µM); in assay [11] it was 0.8 µg/mL (≈ 1.46 µM); in assay [12], 0.5 µg/mL (≈ 0.915 µM).
